According to PubChem BioAssay (NCI):
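Interpolation was linear, between the two tested concentrations surrounding the appropriate level; five concentrations were tested over 48 hours in 96-well plates. Here, GI50 denotes the concentration required for 50% inhibition of growth. TGI marks complete inhibition of growth.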

Tests used:
Experiment in all cases: inhibition of tumour cell growth, NCI panel, 48 h
[1] = tested on: RPMI-8226 leukemia
[2] = tested on: MDA-MB-231 breast
[3] = tested on: NCI-H460 lung
[4] = tested on: SF-268 CNS
[5] = tested on: SK-MEL-28 melanoma
[6] = tested on: HT29 colon
[7] = tested on: HCT-116 colon
[8] = tested on: A498 renal
[9] = tested on: MDA-MB-435
[10] = tested on: HCC-2998 colon
[11] = tested on: OVCAR-8 ovarian
[12] = tested on: T-47D breast
[13] = tested on: 786-0 renal
[14] = tested on: NCI-H226 lung
[15] = tested on: BT-549 breast
[16] = tested on: SK-MEL-5 melanoma
[17] = tested on: SR leukemia
[18] = tested on: HS 578T breast
[19] = tested on: COLO 205 colon
[20] = tested on: UACC-257 melanoma
[21] = tested on: NCI-H522 lung
[22] = tested on: HOP-62 NSCLC
[23] = tested on: A549 NSCLC
[24] = tested on: SK-MEL-2 melanoma
[25] = tested on: MALME-3M melanoma
[26] = tested on: CCRF-CEM leukemia
[27] = tested on: HL-60(TB) leukemia
[28] = tested on: HOP-92 NSCLC
[29] = tested on: SN12C renal
[30] = tested on: NCI/ADR-RES ovarian
[31] = tested on: K-562 leukemia
[32] = tested on: NCI-H23 lung
[33] = tested on: IGROV1 ovarian
[34] = tested on: SF-539 CNS
[35] = tested on: SNB-75 CNS
[36] = tested on: CAKI-1 renal
[37] = tested on: TK-10 renal
[38] = tested on: ACHN renal
[39] = tested on: DU-145 prostate
[40] = tested on: OVCAR-5 ovarian
[41] = tested on: OVCAR-4 ovarian
[42] = tested on: KM12 colon
[43] = tested on: M14 melanoma
[44] = tested on: UACC-62 melanoma
[45] = tested on: OVCAR-3 ovarian
[46] = tested on: U251 CNS
[47] = tested on: HCT-15 colon
[48] = tested on: SNB-19 CNS
[49] = tested on: SF-295 CNS
[50] = tested on: SK-OV-3 ovarian
[51] = tested on: MOLT-4 leukemia
[52] = tested on: PC-3 prostate
[53] = tested on: RXF 393 renal
[54] = tested on: UO-31 renal
[55] = tested on: EKVX NSCLC
[56] = tested on: LOX IMVI melanoma
[57] = tested on: SW-620 colon

SMILES: COc1cc(/C=C(/c2ccccc2)[N+](=O)[O-])c(OC)c2c1OCO2
- GI50 [1]: 459 nM
- TGI [1]: 4100 nM
- GI50 [2]: 1700 nM
- TGI [2]: 3330 nM
- GI50 [3]: 1870 nM
- TGI [3]: 3580 nM
- GI50 [4]: 1840 nM
- TGI [4]: 3920 nM
- GI50 [5]: 1470 nM
- TGI [5]: 2840 nM
- GI50 [6]: 2640 nM
- TGI [6]: 13100 nM
- GI50 [7]: 1300 nM
- TGI [7]: 3000 nM
- GI50 [8]: 1540 nM
- TGI [8]: 3000 nM
- GI50 [9]: 1500 nM
- TGI [9]: 3080 nM
- GI50 [10]: 1970 nM
- TGI [10]: 3440 nM
- GI50 [11]: 2120 nM
- TGI [11]: 6740 nM
- GI50 [12]: 1210 nM
- TGI [12]: 5570 nM
- GI50 [13]: 1620 nM
- TGI [13]: 3050 nM
- GI50 [14]: 1790 nM
- TGI [14]: 3460 nM
- GI50 [15]: 1660 nM
- TGI [15]: 3230 nM
- GI50 [16]: 1750 nM
- TGI [16]: 3140 nM
- GI50 [17]: 334 nM
- TGI [17]: 2650 nM
- GI50 [18]: 2990 nM
- TGI [18]: 14900 nM
- GI50 [19]: 1980 nM
- TGI [19]: 4250 nM
- GI50 [20]: 1580 nM
- TGI [20]: 3400 nM
- GI50 [21]: 1590 nM
- TGI [21]: 4030 nM
- GI50 [22]: 2320 nM
- TGI [22]: 5120 nM
- GI50 [23]: 2100 nM
- TGI [23]: 5030 nM
- GI50 [24]: 1850 nM
- TGI [24]: 4000 nM
- GI50 [25]: 1530 nM
- TGI [25]: 3210 nM
- GI50 [26]: 522 nM
- TGI [26]: > 100000 nM
- GI50 [27]: 1790 nM
- TGI [27]: 5640 nM
- GI50 [28]: 1480 nM
- TGI [28]: 3200 nM
- GI50 [29]: 1560 nM
- TGI [29]: 3790 nM
- GI50 [30]: 2430 nM
- TGI [30]: 7370 nM
- GI50 [31]: 373 nM
- TGI [31]: 13700 nM
- GI50 [32]: 1730 nM
- TGI [32]: 3410 nM
- GI50 [33]: 1160 nM
- TGI [33]: 2600 nM
- GI50 [34]: 1700 nM
- TGI [34]: 3090 nM
- GI50 [35]: 539 nM
- TGI [35]: 2040 nM
- GI50 [36]: 1760 nM
- TGI [36]: 3950 nM
- GI50 [37]: 2050 nM
- TGI [37]: 3810 nM
- GI50 [38]: 1710 nM
- TGI [38]: 3080 nM
- GI50 [39]: 1640 nM
- TGI [39]: 3020 nM
- GI50 [40]: 1760 nM
- TGI [40]: 3580 nM
- GI50 [41]: 1740 nM
- TGI [41]: 3150 nM
- GI50 [42]: 1840 nM
- TGI [42]: 3440 nM
- GI50 [43]: 1560 nM
- TGI [43]: 3300 nM
- GI50 [44]: 1440 nM
- TGI [44]: 2980 nM
- GI50 [45]: 1320 nM
- TGI [45]: 2630 nM
- GI50 [46]: 1520 nM
- TGI [46]: 3050 nM
- GI50 [47]: 389 nM
- TGI [47]: 1600 nM
- GI50 [48]: 1580 nM
- TGI [48]: 2950 nM
- GI50 [49]: 2780 nM
- TGI [49]: 7880 nM
- GI50 [50]: 2890 nM
- TGI [50]: 8290 nM
- GI50 [51]: 1860 nM
- TGI [51]: 6410 nM
- GI50 [52]: 1710 nM
- TGI [52]: 3590 nM
- GI50 [53]: 1490 nM
- TGI [53]: 2850 nM
- GI50 [54]: 1280 nM
- TGI [54]: 2540 nM
- GI50 [55]: 1690 nM
- TGI [55]: 3320 nM
- GI50 [56]: 1140 nM
- TGI [56]: 2440 nM
- GI50 [57]: 1520 nM
- TGI [57]: 3560 nM
